In EP3045469A1, “POLYMYXIN DERIVATIVE AND USES THEREOF” (priority 2015, dated 2016):
Like-named read-outs stand apart in the source and are kept apart here.

Experiments:
[1] = patients, in selected materials; cited from earlier work
[2] = rats; cited from earlier work
[3] = system: Escherichia coli C175-94; test: Murine urinary infection efficacy study; format: in vivo
Experimental: The study used 64 outbred, OF-1 female mice (Charles River, France) weighing 28 -32 grams and Escherichia coli C175-94 (serotype O8:K48:H4), a clinical isolate elaborating type 1fimbriae. The peptides were NAB815 (Lot 1054308) and polymyxin B (Sigma-Aldrich, batch BCBF8382V). The study was performed by Statens Serum Institut, Copenhagen, Denmark.
Three days before the start of the study and during the study, the mice had free access to 5% glucose as drinking water.
On day 0, the urine was removed from the bladder by gently pressing the abdomen, Thereafter, the mouse was anaesthetized with approximately 0.15 ml of Zoletil mix s.c. A syringe with polyethylene catheter (Becton Dickison) containing the bacterial suspension was inserted via the urethra into the bladder and 50 µl of the bacterial inoculum was slowly injected into the bladder. Hereafter, the mouse was left in the cage. Mice were kept in a warming cabinet and were under surveillance until fully awake.
After measuring the colony forming units (CFUs), the inoculum was determined to contain 9.38 log10 CFU/ml, corresponding to 8.08 log10 CFU/mouse.
On day 1 and on day 2 postinfection, the mice were treated subcutaneously with solutions (0.2 ml) containing NAB815, polymyxin B or vehicle (0.9% NaCl) twice a day. The treatment groups (six mice in each) were the following: vehicle control; NAB815, 0.25 mg/kg/dose; NAB815, 0.5 mg/kg/dose; NAB815, 1 mg/kg/dose; NAB815, 2 mg/kg/dose; polymyxin B, 0.25 mg/kg/dose; polymyxin B, 0.5 mg/kg/dose; polymyxin B, 1 mg/kg/dose; and polymyxin B, 2 mg/kg/dose. In addition, one group served as a pretreatment control to help to assess as how the infection has proceeded before the start of the treatment on day 1 postinfection.
On days 1, 2 and 3 postinfection urine was sampled for colony counts. On day 1 postinfection (pretreatment control group) and on day 3 postinfection (all the other groups) after the urine sample was taken, mice were sacrificed by cervical dislocation and bladder and kidneys were removed aseptically. The bladder and kidneys were stored at -80 °C and later homogenized in 0.5 and 1 ml saline, respectively.
CFUs in urine were determined immediately within 2-3 hours after sampling. Frozen organs were thawed and homogenized with steel beads on a tissue lyser. All samples, urine, kidney and bladder, were 10 fold diluted in saline and 20-µl spots were applied on blood agar plates in duplicates. In addition, undiluted samples of urine (2-100 µl depending on the amount of urine) were spread on a separate agar plate to determine the lowest possible detection level of the colony counts. All agar plates were incubated 18-22 h at 35 °C in ambient air.

[4] = system: A. baumannii CMI 417; test: MIC assay (CLSI broth microdilution; checkerboard with rifampin); format: cell-based, Acinetobacter baumannii; details: in combination with rifampin (0.25 µg/mL), duplicate checkerboard assays; polymyxin-nonsusceptible strain
Experimental: (§1) Synergy studies were performed by using polymyxin derivatives in combination with rifampin, a model compound for such antibacterial agents that the intact outer membrane of Gram-negative bacteria acts as a permeability barrier.

[5] = system: A. baumannii ATCC 19606
Experimental: as §1

[6] = system: P. aeruginosa JMI 7445
Experimental: as §1

[7] = system: K. pneumoniae ATCC 43816
Experimental: as §1

[8] = system: E. coli ATCC 25922
Experimental: as §1

[9] = system: E. coli JMI 3328
Experimental: as §1

[10] = system: A. baumannii JMI 48125
Experimental: as §1

[11] = system: K. pneumoniae JMI 27072
Experimental: as §1

[12] = system: P. aeruginosa ATCC 27853
Experimental: as §1

[13] = system: E. coli JMI 109; test: MIC assay (CLSI broth microdilution; checkerboard with rifampin); format: cell-based, Escherichia coli; details: in combination with rifampin (0.25 µg/mL), duplicate checkerboard assays; polymyxin-nonsusceptible strain
Experimental: as §1

[14] = system: K. pneumoniae JMI 27068; test: as above; format: cell-based, Klebsiella pneumoniae; details: in combination with rifampin (0.25 µg/mL), duplicate checkerboard assays; polymyxin-nonsusceptible strain
Experimental: as §1

[15] = dogs; cited from earlier work
[16] = of all the 24 mice treated at 0.25-2 mg/kg/dose
[17] = alone, Müller-Hinton II broth, 35°C, 20 hours
[18] = in combination with rifampin (0.25 µg/mL), duplicate checkerboard assays

Polymyxin B
nephrotoxicity rate [1]: ≤ 55%
S-Crea and BUN response [2]: lack of response
dose-response in the CFUs in the bladder and in the kidneys ([3]; mice, 0.25-2 mg/kg/dose subcutaneously twice a day): did not show any dose-response tendency
CFU levels in urine, day 3 versus pretreatment control group on day 1 postinfection ([3]; mice, any dose group (0.25, 0.5, 1, 2 mg/kg/dose) subcutaneously twice a day): no significant differences
number of mice with bacterial levels below the detection limit in the kidneys [3, 16]: 10
number of mice with bacterial levels below the detection limit in the urine [3, 16]: 1
MIC [4]: 1 µg/mL
MIC [5, 17]: 2 µg/mL
MIC [5, 18]: 0.5 µg/mL
MIC [6, 17]: 2 µg/mL
MIC [6, 18]: 1 µg/mL
MIC [7, 17]: 2 µg/mL
MIC [7, 18]: 0.5 to 1 µg/mL
MIC [8, 17]: 2 µg/mL
MIC [8, 18]: 0.5 to 1 µg/mL
MIC [9, 17]: 2 µg/mL
MIC [9, 18]: 0.5 to 1 µg/mL
MIC [10, 17]: 2 µg/mL
MIC [10, 18]: 1 µg/mL
MIC [11, 17]: 2 µg/mL
MIC [11, 18]: 1 µg/mL
MIC [12, 17]: 2 µg/mL
MIC [12, 18]: 1 µg/mL
MIC [13]: 0.5 to 1 µg/mL
MIC [14]: 1 µg/mL
S-Crea and BUN response [15]: elicited a rapid onset of S-Crea and BUN response
